Experimental data: the supplement of paper PMC13380429

Experiments:
[1] = system: A549-ACE2 infected with SARS-CoV-2; assay: cell count relative to DMSO; higher = less toxic; details: 24 h
Caco-2 [2] = assay: cell viability relative to DMSO; higher = less toxic; details: 72 h
Calu-3 [3] = assay: as above; details: 72 h
HepG2 [4] = assay: as above; details: 72 h
U2OS [5] = assay: as above; details: 72 h
Vero E6 [6] = assay: as above; details: 72 h
[7] = system: A549-ACE2 infected with SARS-CoV-2; assay: SARS-CoV-2 infection rate relative to DMSO; higher = more infection; details: 24 h
A549-ACE2 [8] = assay: phospholipidosis EC50; higher = less potent phospholipidosis inducer
A549-ACE2 [9] = assay: drug-induced phospholipidosis relative to tamoxifen; higher = more phospholipidosis
[10] = system: A549-ACE2 infected with SARS-CoV-2; assay: morphology score (similarity to uninfected cells); higher = more like uninfected cells; details: 24 h
Caco-2 [11] = assay: relative viability EC50 (midpoint between 100% and the lowest measured viability); higher = less toxic; details: 72 h
Calu-3 [12] = assay: as above; details: 72 h
HepG2 [13] = assay: as above; details: 72 h
U2OS [14] = assay: as above; details: 72 h
Vero E6 [15] = assay: as above; details: 72 h
Caco-2 [16] = assay: drug sensitivity score (DSS) for viability; higher = more toxic; extreme values may be limits of the assay; details: 72 h
Calu-3 [17] = assay: as above; details: 72 h
HepG2 [18] = assay: as above; details: 72 h
U2OS [19] = assay: as above; details: 72 h
Vero E6 [20] = assay: as above; details: 72 h

## Cc1cccc(/C=N/Nc2cc(N3CCOCC3)n3nc(-c4ccncc4)cc3n2)c1 [APY0201]
[1]; 0.3 µM
  cell count: 113%
[1]; 3 µM
  cell count: 98%
[1]; 10 µM
  cell count: 94%
[1]; 30 µM
  cell count: 91%
Caco-2 [2]; 1 nM
  cell viability: 95.5%
Caco-2 [2]; 10 nM
  cell viability: 101%
Caco-2 [2]; 100 nM
  cell viability: 92.8%
Caco-2 [2]; 1000 nM
  cell viability: 97%
Caco-2 [2]; 10000 nM
  cell viability: 80.1%
Calu-3 [3]; 1 nM
  cell viability: 111%
Calu-3 [3]; 10 nM
  cell viability: 101%
Calu-3 [3]; 100 nM
  cell viability: 87.8%
Calu-3 [3]; 1000 nM
  cell viability: 85.8%
Calu-3 [3]; 10000 nM
  cell viability: 98.1%
HepG2 [4]; 1 nM
  cell viability: 99.8%
HepG2 [4]; 10 nM
  cell viability: 98.9%
HepG2 [4]; 100 nM
  cell viability: 82.8%
HepG2 [4]; 1000 nM
  cell viability: 31.3%
HepG2 [4]; 10000 nM
  cell viability: 22.3%
U2OS [5]; 1 nM
  cell viability: 94.2%
U2OS [5]; 10 nM
  cell viability: 97.7%
U2OS [5]; 100 nM
  cell viability: 93.9%
U2OS [5]; 1000 nM
  cell viability: 91.2%
U2OS [5]; 10000 nM
  cell viability: 77.6%
Vero E6 [6]; 1 nM
  cell viability: 110%
Vero E6 [6]; 10 nM
  cell viability: 104%
Vero E6 [6]; 100 nM
  cell viability: 96.7%
Vero E6 [6]; 1000 nM
  cell viability: 45.6%
Vero E6 [6]; 10000 nM
  cell viability: 38.2%
[7]; 0.3 µM
  SARS-CoV-2 infection rate: 41%
[7]; 3 µM
  SARS-CoV-2 infection rate: 72%
[7]; 10 µM
  SARS-CoV-2 infection rate: 72%
[7]; 30 µM
  SARS-CoV-2 infection rate: 65%
A549-ACE2 [8]; 24 h
  phospholipidosis EC50: 0.3 µM
A549-ACE2 [8]; 48 h
  phospholipidosis EC50: 1.08 µM
A549-ACE2 [8]; 72 h
  phospholipidosis EC50: 0.851 µM
A549-ACE2 [9]; 0.3 µM, 24 h
  drug-induced phospholipidosis: 100%
A549-ACE2 [9]; 0.3 µM, 48 h
  drug-induced phospholipidosis: 105%
A549-ACE2 [9]; 0.3 µM, 72 h
  drug-induced phospholipidosis: 141%
A549-ACE2 [9]; 0.833333 µM, 24 h
  drug-induced phospholipidosis: 98.4%
A549-ACE2 [9]; 0.833333 µM, 48 h
  drug-induced phospholipidosis: 98.3%
A549-ACE2 [9]; 0.833333 µM, 72 h
  drug-induced phospholipidosis: 95%
A549-ACE2 [9]; 3.33333 µM, 24 h
  drug-induced phospholipidosis: 102%
A549-ACE2 [9]; 3.33333 µM, 48 h
  drug-induced phospholipidosis: 47.8%
A549-ACE2 [9]; 3.33333 µM, 72 h
  drug-induced phospholipidosis: 33.5%
A549-ACE2 [9]; 6.66667 µM, 24 h
  drug-induced phospholipidosis: 100%
A549-ACE2 [9]; 6.66667 µM, 48 h
  drug-induced phospholipidosis: 39.8%
A549-ACE2 [9]; 6.66667 µM, 72 h
  drug-induced phospholipidosis: 42.7%
A549-ACE2 [9]; 10 µM, 24 h
  drug-induced phospholipidosis: 85.1%
A549-ACE2 [9]; 30 µM, 24 h
  drug-induced phospholipidosis: 97.8%
A549-ACE2 [9]; 30 µM, 48 h
  drug-induced phospholipidosis: 61.8%
[10]; 0.3 µM
  morphology score: 0.21
[10]; 3 µM
  morphology score: -0.06
[10]; 10 µM
  morphology score: -0.03
[10]; 30 µM
  morphology score: -0.04
Caco-2 [11]
  relative viability EC50: > 10 µM
Calu-3 [12]
  relative viability EC50: > 10 µM
HepG2 [13]
  relative viability EC50: 0.24 µM
U2OS [14]
  relative viability EC50: > 10 µM
Vero E6 [15]
  relative viability EC50: 0.392 µM
Caco-2 [16]
  drug sensitivity score: 1
Calu-3 [17]
  drug sensitivity score: 2
HepG2 [18]
  drug sensitivity score: 14.8
U2OS [19]
  drug sensitivity score: 1.2
Vero E6 [20]
  drug sensitivity score: 10.4

## NC1(Cc2ccc(Cl)cc2)CCN(c2ncnc3[nH]ccc23)CC1
[1]; 0.1 µM
  cell count: 104%
[1]; 0.3 µM
  cell count: 105%
[1]; 1 µM
  cell count: 104%
[1]; 3 µM
  cell count: 105%
Caco-2 [2]; 1 nM
  cell viability: 93.7%
Caco-2 [2]; 10 nM
  cell viability: 109%
Caco-2 [2]; 100 nM
  cell viability: 95.4%
Caco-2 [2]; 1000 nM
  cell viability: 98.2%
Caco-2 [2]; 10000 nM
  cell viability: 81.7%
Calu-3 [3]; 1 nM
  cell viability: 95.4%
Calu-3 [3]; 10 nM
  cell viability: 99.9%
Calu-3 [3]; 100 nM
  cell viability: 100%
Calu-3 [3]; 1000 nM
  cell viability: 105%
Calu-3 [3]; 10000 nM
  cell viability: 77.5%
HepG2 [4]; 1 nM
  cell viability: 100%
HepG2 [4]; 10 nM
  cell viability: 102%
HepG2 [4]; 100 nM
  cell viability: 94.5%
HepG2 [4]; 1000 nM
  cell viability: 91.1%
HepG2 [4]; 10000 nM
  cell viability: 26.3%
U2OS [5]; 1 nM
  cell viability: 96.9%
U2OS [5]; 10 nM
  cell viability: 101%
U2OS [5]; 100 nM
  cell viability: 93%
U2OS [5]; 1000 nM
  cell viability: 95%
U2OS [5]; 10000 nM
  cell viability: 52.6%
Vero E6 [6]; 1 nM
  cell viability: 97.6%
Vero E6 [6]; 10 nM
  cell viability: 100%
Vero E6 [6]; 100 nM
  cell viability: 96.8%
Vero E6 [6]; 1000 nM
  cell viability: 88.5%
Vero E6 [6]; 10000 nM
  cell viability: 65.3%
[7]; 0.1 µM
  SARS-CoV-2 infection rate: 99%
[7]; 0.3 µM
  SARS-CoV-2 infection rate: 106%
[7]; 1 µM
  SARS-CoV-2 infection rate: 104%
[7]; 3 µM
  SARS-CoV-2 infection rate: 85%
A549-ACE2 [8]; 24 h
  phospholipidosis EC50: 5.25 µM
A549-ACE2 [8]; 48 h
  phospholipidosis EC50: 7.16 µM
A549-ACE2 [8]; 72 h
  phospholipidosis EC50: 8.44 µM
A549-ACE2 [9]; 0.3 µM, 24 h
  drug-induced phospholipidosis: 2.53%
A549-ACE2 [9]; 0.3 µM, 48 h
  drug-induced phospholipidosis: 0.01%
A549-ACE2 [9]; 0.3 µM, 72 h
  drug-induced phospholipidosis: -2.31%
A549-ACE2 [9]; 0.833333 µM, 24 h
  drug-induced phospholipidosis: 6.69%
A549-ACE2 [9]; 0.833333 µM, 48 h
  drug-induced phospholipidosis: -2.52%
A549-ACE2 [9]; 0.833333 µM, 72 h
  drug-induced phospholipidosis: -5.85%
A549-ACE2 [9]; 3.33333 µM, 24 h
  drug-induced phospholipidosis: 24.4%
A549-ACE2 [9]; 3.33333 µM, 48 h
  drug-induced phospholipidosis: 9.67%
A549-ACE2 [9]; 3.33333 µM, 72 h
  drug-induced phospholipidosis: 5.48%
A549-ACE2 [9]; 6.66667 µM, 24 h
  drug-induced phospholipidosis: 64.2%
A549-ACE2 [9]; 6.66667 µM, 48 h
  drug-induced phospholipidosis: 37.5%
A549-ACE2 [9]; 6.66667 µM, 72 h
  drug-induced phospholipidosis: 20.6%
A549-ACE2 [9]; 10 µM, 24 h
  drug-induced phospholipidosis: 86.2%
A549-ACE2 [9]; 10 µM, 48 h
  drug-induced phospholipidosis: 65.9%
A549-ACE2 [9]; 10 µM, 72 h
  drug-induced phospholipidosis: 47.9%
A549-ACE2 [9]; 30 µM, 24 h
  drug-induced phospholipidosis: 95.1%
A549-ACE2 [9]; 30 µM, 48 h
  drug-induced phospholipidosis: 86.8%
A549-ACE2 [9]; 30 µM, 72 h
  drug-induced phospholipidosis: 73.3%
[10]; 0.1 µM
  morphology score: 0.13
[10]; 0.3 µM
  morphology score: -0.05
[10]; 1 µM
  morphology score: 0.15
[10]; 3 µM
  morphology score: 0.48
Caco-2 [11]
  relative viability EC50: > 10 µM
Calu-3 [12]
  relative viability EC50: > 10 µM
HepG2 [13]
  relative viability EC50: 2.18 µM
Caco-2 [16]
  drug sensitivity score: 0.7
Calu-3 [17]
  drug sensitivity score: 0.5
HepG2 [18]
  drug sensitivity score: 5.6
U2OS [19]
  drug sensitivity score: 3.3
Vero E6 [20]
  drug sensitivity score: 3
